Reference: ChEMBL document CHEMBL3045295, “Antifeedant triterpenoids from the seeds and bark of Lansium domesticum cv Kokossan (Meliaceae)” (2011)

Each compound was assayed on Henosepilachna vigintioctopunctata (assay: Antifeedant activity against fourth-instar larvae of Henosepilachna vigintioctopunctata on Solanum nigrum leaves at 1 % relative to control).
Type: functional

| SMILES | AFI [%] |
| --- | --- |
| C=C1CC[C@H]2C(C)(C)C(=O)CC[C@]2(C)[C@H]1CC[C@H]1C(C)=CC[C@H]2C(C)(C)C(=O)CC[C@]12C | 56 |
| CC1=CC[C@H]2C(C)(C)C(=O)CC[C@]2(C)[C@H]1CC[C@H]1C(C)=CC[C@H]2C(C)(C)C(=O)CC[C@]12C | 85 |
| COC(=O)[C@@H]1O[C@]23O[C@H]4CC[C@]5(C)C(=CC(=O)O[C@H]5c5ccoc5)[C@H]4C[C@]2(O)C(=O)C(C)(C)[C@H]1[C@@H]3C [KOKOSANOLIDE A] | 78 |
| COC(=O)[C@@H]1O[C@]23O[C@H]4CC[C@]5(C)C(=CC(=O)O[C@H]5c5ccoc5)[C@H]4C[C@]2(O)CC(C)(C)[C@H]1[C@@H]3C [KOKOSANOLIDE C] | 0 |
| CC1=CC[C@H]2C(C)(C)C(=O)CC[C@]2(C)[C@H]1CC[C@H]1C(C)(O)CC[C@H]2C(C)(C)C(=O)CC[C@]12C (stereo not given in full) [Kokosanolide B] | 99 |
